# Earlier results, collected in publication PMC2033546, “Effects of somatostatin analogue RC-160 and bombesin/gastrin-releasing peptide antagonists on the growth of human small-cell and non-small-cell lung carcinomas in nude mice” (British Journal of Cancer, 1994).
# Columns and labels:
# SCLC xenografts = details: nude mice; ref Alexander et al., 1988; cited from earlier work
# Description: (§1) Br. J. Cancer (1994). 70, 886 892 ? Macmillan Press Ltd..
# EGF receptors = details: various cancer lines and cancer specimens; ref Liebow et al., 1992; cited from earlier work
# Description: as §1
# SCLC = details: in vitro; ref Carney et al., 1987; cited from earlier work
# Description: as §1
substance,measurement,setting,value
Bombesin,Effect on growth of SCLC xenografts (in words),SCLC xenografts,stimulates
same,Effect on phosphorylation of EGF receptors (in words),EGF receptors,enhance the phosphorylation of EGF receptors
same,Effect on clonal growth of SCLC and DNA synthesis (in words),SCLC,stimulates the clonal growth of SCLC and DNA synthesis in vitro
